Results reported in BindingDB's records for doi:10.1124/jpet.105.083337 (Neurocrine Biosciences, 2005).
pKi: −log10 of the molar value.

Target: Melanocortin receptor 4 (Homo sapiens, UniProt P32245)
Sequence (P32245 whole entry): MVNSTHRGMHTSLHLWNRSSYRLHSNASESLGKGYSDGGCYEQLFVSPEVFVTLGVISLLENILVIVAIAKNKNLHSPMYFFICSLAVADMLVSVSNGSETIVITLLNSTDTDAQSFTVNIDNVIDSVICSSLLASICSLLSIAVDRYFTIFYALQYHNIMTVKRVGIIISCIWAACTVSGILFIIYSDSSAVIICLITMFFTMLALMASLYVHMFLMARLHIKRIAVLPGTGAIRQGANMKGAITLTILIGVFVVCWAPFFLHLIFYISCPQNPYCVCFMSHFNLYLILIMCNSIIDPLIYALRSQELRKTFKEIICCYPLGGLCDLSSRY

| Structure (SMILES) | pKi |
| --- | --- |
| CN(Cc1cccnc1)Cc1ccccc1N1CCN(C(=O)[C@@H](Cc2ccc(Cl)cc2)NC(=O)[C@H]2Cc3ccccc3CN2)CC1 | 7.13 |
| CC(Nc1cc[nH]c1)c1ccccc1N1CCN(C(=O)[C@@H](Cc2ccc(Cl)cc2)NC(=O)[C@H]2Cc3ccccc3CN2)CC1 (some centres undefined) [NBI-58704] | 7.87 |
| CN(Cc1ccccc1N1CCN(C(=O)[C@@H](Cc2ccc(Cl)cc2)NC(=O)[C@H]2Cc3ccccc3CN2)CC1)C1CCCNC1 (some centres undefined) [NBI-58702] | 8.20 |
| C[C@@H]1CN(Cc2ccccc2N2CCN(C(=O)[C@@H](Cc3ccc(Cl)cc3)NC(=O)[C@H]3Cc4ccccc4CN3)CC2)[C@@H](C)CN1 [NBI-56297] | 7.70 |
